Source: ChEMBL document CHEMBL1201862, “PubChem BioAssay data set” (2004)
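Values below derive from 48-hour exposures of cells grown in 96-well plates, with endpoints linearly interpolated between the two concentrations bracketing the appropriate inhibition level. GI50 marks 50% less growth.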 The source made the active and inactive calls. Cut-off read from the data, not from the text of the source: active = GI50 up to about 1.1 µM and inactive = higher.

Assays:
Assay in all cases: growth of human tumour cells (NCI), 48 h
[1] = system: SW-620
[2] = system: UACC-62
[3] = system: IGROV-1
[4] = system: XF498
[5] = system: MOLT-4
[6] = system: ACHN
[7] = system: SK-MEL-28
[8] = system: SNB-78
[9] = system: RPMI-8226
[10] = system: OVCAR-8
[11] = system: DLD-1
[12] = system: HOP-18
[13] = system: NCI-H226
[14] = system: SK-OV-3
[15] = system: SN12C
[16] = system: HL-60
[17] = system: DMS-114
[18] = system: SK-MEL-5

Measured: GI50

N=C(N)NS(=O)(=O)c1ccc(NC(=O)c2cccn3c(=O)c4ccccc4nc23)cc1
inactive: [1] 51.5 µM | [2] 32.9 µM | [3] 56 µM | [4] 22.5 µM | [5] 25.5 µM | [6] 81.8 µM | [7] 91 µM | [8] > 100 µM | [9] 24.9 µM | [10] 84.5 µM | [11] 83 µM | [12] > 100 µM | [13] 44.8 µM | [14] > 100 µM | [15] 70.8 µM | [16] 24.5 µM | [17] 40.6 µM | [18] 27 µM

CCN(CC)CCC(=O)/C=C/c1ccc(C)cc1
inactive: [1] 4.69 µM | [2] 16.6 µM | [3] 15.3 µM | [4] 12.4 µM | [5] 11.7 µM | [6] 14.4 µM | [7] 14.8 µM | [8] 23.5 µM | [9] 3.99 µM | [10] 13.2 µM | [11] 6.17 µM | [12] 17.6 µM | [13] 17.1 µM | [14] 20.7 µM | [15] 12 µM | [16] 10.8 µM | [17] 11.3 µM | [18] 16.6 µM

COC(=O)C(CC(=O)c1ccccc1)c1ccccc1NC(C)=O (stereo unspecified)
inactive: [1] > 100 µM | [2] > 100 µM | [3] > 100 µM | [4] > 100 µM | [5] > 100 µM | [6] > 100 µM | [7] > 100 µM | [8] > 100 µM | [9] > 100 µM | [10] > 100 µM | [11] > 100 µM | [12] > 100 µM | [13] > 100 µM | [14] > 100 µM | [15] > 100 µM | [16] > 100 µM | [17] > 100 µM | [18] > 100 µM

COc1cc2c(cc1OC)C1[C@@H](c3ccccc3)OCN1CC2 (stereo partly specified)
inactive: [1] 56.8 µM | [2] > 100 µM | [3] > 100 µM | [4] > 100 µM | [5] > 100 µM | [6] > 100 µM | [7] > 100 µM | [8] > 73.1 µM | [9] 44.4 µM | [10] > 100 µM | [11] > 86.9 µM | [12] > 100 µM | [13] > 100 µM | [14] > 46 µM | [15] > 100 µM | [16] 54.5 µM | [17] 88.1 µM | [18] > 96.4 µM

COc1ccc2nc(C(=O)c3ccccc3)c(C)cc2c1
inactive: [1] 2.81 µM | [2] 5.26 µM | [3] > 29.2 µM | [4] 3.68 µM | [5] 5.02 µM | [6] 10 µM | [7] 3.91 µM | [8] 13.2 µM | [9] 6.61 µM | [10] 5.31 µM | [11] 4.84 µM | [12] > 26.9 µM | [13] 23.9 µM | [14] 3.83 µM | [15] 6.84 µM | [16] 3.38 µM | [17] 3.22 µM | [18] 3.15 µM

CN(C)c1ccc(/C=C2\N=C(c3ccc(N)cc3)OC2=O)cc1
inactive: [1] > 100 µM | [2] > 100 µM | [3] > 100 µM | [4] > 100 µM | [5] > 100 µM | [6] > 100 µM | [7] > 100 µM | [8] > 100 µM | [9] > 100 µM | [10] > 100 µM | [11] > 100 µM | [12] > 100 µM | [13] > 100 µM | [14] > 100 µM | [15] > 100 µM | [16] > 100 µM | [17] > 100 µM | [18] > 100 µM

O=C(O)CC(O)(c1ccccc1C(=O)O)c1cccc2ccccc12 (stereo unspecified)
inactive: [1] > 100 µM | [2] > 100 µM | [3] > 100 µM | [4] > 100 µM | [5] > 100 µM | [6] > 100 µM | [7] > 100 µM | [8] > 100 µM | [9] > 100 µM | [10] > 100 µM | [11] > 100 µM | [12] > 100 µM | [13] > 100 µM | [14] > 100 µM | [15] > 100 µM | [16] > 100 µM | [17] > 100 µM | [18] > 100 µM
